Test results published in ChEMBL document CHEMBL5465560, “Selectivity Literature for EUbOPEN Chemogenomic Library” (2024).
Values belong to the compound of their own block, whether it stands above or below them.

Key:
[1] = target: Cyclin-dependent kinase 16 (Homo sapiens) (UniProt Q00536); settings: at 10 µM
[2] = target: Glycogen synthase kinase-3 beta (Homo sapiens, UniProt P49841); settings: at 10 µM
[3] = target: Dual specificity protein kinase CLK3 (Homo sapiens, UniProt P49761); test: Selectivity interaction (Ambit KINOMEscan and KiNATiv profiling in Jurkat cells) EUB0000090b CLK3; type: cell-based; settings: at 1 µM
[4] = target: Bromodomain-containing protein 7 (Homo sapiens) (UniProt Q9NPI1); test: Selectivity interaction (Bromodomain panel (DSF asssay)) EUB0000270b BRD7
Sequence of Bromodomain-containing protein 7 (Homo sapiens) (Q9NPI1 whole entry): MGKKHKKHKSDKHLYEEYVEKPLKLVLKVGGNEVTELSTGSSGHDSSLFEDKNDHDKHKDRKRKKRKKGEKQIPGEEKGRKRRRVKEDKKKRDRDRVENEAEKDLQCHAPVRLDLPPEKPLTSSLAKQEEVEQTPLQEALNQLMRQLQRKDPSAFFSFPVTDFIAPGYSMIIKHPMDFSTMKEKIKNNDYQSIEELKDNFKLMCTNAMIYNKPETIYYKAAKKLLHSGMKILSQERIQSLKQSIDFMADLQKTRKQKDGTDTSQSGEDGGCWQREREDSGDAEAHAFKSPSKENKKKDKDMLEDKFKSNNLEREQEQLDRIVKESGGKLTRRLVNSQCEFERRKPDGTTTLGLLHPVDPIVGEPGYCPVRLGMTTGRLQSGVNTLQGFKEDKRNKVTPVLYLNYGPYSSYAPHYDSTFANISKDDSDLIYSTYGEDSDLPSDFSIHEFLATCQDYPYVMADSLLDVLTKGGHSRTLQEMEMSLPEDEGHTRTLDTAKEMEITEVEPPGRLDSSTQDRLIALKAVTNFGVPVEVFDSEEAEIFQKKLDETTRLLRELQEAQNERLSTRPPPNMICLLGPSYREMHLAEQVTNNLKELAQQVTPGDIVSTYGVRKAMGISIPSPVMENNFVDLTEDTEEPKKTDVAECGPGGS

[5] = target: Serine/threonine-protein kinase MRCK beta (Homo sapiens) (UniProt Q9Y5S2); test: Selectivity interaction (Kinase panel (Z-LYTE Assay)) EUB0001632a CDC42BPB; settings: at 10 µM
[6] = target: T1, Tyrosine-protein kinase Tec (Homo sapiens) (UniProt P42680); test: Selectivity interaction (LanthaScreen Eu Kinase Binding Assay) EUB0001632a TEC; settings: at 10 µM
T1 sequence (whole entry): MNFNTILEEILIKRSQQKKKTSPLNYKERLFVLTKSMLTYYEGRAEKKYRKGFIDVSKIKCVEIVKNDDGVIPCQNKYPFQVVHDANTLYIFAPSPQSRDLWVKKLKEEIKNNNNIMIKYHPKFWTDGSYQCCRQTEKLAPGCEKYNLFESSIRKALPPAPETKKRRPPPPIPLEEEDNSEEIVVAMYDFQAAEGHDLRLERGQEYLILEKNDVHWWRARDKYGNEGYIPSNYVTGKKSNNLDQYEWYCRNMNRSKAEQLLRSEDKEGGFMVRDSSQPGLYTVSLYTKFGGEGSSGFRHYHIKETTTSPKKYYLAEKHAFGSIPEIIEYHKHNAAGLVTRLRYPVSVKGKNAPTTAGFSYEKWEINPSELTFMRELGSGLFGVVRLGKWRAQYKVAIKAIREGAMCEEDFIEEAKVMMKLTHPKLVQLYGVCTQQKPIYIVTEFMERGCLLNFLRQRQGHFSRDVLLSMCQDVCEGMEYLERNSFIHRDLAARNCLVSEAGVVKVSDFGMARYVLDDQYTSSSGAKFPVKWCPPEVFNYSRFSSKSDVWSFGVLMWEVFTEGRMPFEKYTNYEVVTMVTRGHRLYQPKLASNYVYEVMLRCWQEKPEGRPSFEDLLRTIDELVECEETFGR

[7] = target: Histone-lysine N-methyltransferase 2A (Homo sapiens) (UniProt Q03164); test: Selectivity interaction (Methyltransferase screen (radiometric assays, panel of 8 PRMTs, 21 protein lysine methyltransferases, 3 DNA methyltransferases, and one RNA methyltransferase)) EUB0000272b MLL
Sequence of Histone-lysine N-methyltransferase 2A (Homo sapiens) (Q03164 1-2718 limits assumed): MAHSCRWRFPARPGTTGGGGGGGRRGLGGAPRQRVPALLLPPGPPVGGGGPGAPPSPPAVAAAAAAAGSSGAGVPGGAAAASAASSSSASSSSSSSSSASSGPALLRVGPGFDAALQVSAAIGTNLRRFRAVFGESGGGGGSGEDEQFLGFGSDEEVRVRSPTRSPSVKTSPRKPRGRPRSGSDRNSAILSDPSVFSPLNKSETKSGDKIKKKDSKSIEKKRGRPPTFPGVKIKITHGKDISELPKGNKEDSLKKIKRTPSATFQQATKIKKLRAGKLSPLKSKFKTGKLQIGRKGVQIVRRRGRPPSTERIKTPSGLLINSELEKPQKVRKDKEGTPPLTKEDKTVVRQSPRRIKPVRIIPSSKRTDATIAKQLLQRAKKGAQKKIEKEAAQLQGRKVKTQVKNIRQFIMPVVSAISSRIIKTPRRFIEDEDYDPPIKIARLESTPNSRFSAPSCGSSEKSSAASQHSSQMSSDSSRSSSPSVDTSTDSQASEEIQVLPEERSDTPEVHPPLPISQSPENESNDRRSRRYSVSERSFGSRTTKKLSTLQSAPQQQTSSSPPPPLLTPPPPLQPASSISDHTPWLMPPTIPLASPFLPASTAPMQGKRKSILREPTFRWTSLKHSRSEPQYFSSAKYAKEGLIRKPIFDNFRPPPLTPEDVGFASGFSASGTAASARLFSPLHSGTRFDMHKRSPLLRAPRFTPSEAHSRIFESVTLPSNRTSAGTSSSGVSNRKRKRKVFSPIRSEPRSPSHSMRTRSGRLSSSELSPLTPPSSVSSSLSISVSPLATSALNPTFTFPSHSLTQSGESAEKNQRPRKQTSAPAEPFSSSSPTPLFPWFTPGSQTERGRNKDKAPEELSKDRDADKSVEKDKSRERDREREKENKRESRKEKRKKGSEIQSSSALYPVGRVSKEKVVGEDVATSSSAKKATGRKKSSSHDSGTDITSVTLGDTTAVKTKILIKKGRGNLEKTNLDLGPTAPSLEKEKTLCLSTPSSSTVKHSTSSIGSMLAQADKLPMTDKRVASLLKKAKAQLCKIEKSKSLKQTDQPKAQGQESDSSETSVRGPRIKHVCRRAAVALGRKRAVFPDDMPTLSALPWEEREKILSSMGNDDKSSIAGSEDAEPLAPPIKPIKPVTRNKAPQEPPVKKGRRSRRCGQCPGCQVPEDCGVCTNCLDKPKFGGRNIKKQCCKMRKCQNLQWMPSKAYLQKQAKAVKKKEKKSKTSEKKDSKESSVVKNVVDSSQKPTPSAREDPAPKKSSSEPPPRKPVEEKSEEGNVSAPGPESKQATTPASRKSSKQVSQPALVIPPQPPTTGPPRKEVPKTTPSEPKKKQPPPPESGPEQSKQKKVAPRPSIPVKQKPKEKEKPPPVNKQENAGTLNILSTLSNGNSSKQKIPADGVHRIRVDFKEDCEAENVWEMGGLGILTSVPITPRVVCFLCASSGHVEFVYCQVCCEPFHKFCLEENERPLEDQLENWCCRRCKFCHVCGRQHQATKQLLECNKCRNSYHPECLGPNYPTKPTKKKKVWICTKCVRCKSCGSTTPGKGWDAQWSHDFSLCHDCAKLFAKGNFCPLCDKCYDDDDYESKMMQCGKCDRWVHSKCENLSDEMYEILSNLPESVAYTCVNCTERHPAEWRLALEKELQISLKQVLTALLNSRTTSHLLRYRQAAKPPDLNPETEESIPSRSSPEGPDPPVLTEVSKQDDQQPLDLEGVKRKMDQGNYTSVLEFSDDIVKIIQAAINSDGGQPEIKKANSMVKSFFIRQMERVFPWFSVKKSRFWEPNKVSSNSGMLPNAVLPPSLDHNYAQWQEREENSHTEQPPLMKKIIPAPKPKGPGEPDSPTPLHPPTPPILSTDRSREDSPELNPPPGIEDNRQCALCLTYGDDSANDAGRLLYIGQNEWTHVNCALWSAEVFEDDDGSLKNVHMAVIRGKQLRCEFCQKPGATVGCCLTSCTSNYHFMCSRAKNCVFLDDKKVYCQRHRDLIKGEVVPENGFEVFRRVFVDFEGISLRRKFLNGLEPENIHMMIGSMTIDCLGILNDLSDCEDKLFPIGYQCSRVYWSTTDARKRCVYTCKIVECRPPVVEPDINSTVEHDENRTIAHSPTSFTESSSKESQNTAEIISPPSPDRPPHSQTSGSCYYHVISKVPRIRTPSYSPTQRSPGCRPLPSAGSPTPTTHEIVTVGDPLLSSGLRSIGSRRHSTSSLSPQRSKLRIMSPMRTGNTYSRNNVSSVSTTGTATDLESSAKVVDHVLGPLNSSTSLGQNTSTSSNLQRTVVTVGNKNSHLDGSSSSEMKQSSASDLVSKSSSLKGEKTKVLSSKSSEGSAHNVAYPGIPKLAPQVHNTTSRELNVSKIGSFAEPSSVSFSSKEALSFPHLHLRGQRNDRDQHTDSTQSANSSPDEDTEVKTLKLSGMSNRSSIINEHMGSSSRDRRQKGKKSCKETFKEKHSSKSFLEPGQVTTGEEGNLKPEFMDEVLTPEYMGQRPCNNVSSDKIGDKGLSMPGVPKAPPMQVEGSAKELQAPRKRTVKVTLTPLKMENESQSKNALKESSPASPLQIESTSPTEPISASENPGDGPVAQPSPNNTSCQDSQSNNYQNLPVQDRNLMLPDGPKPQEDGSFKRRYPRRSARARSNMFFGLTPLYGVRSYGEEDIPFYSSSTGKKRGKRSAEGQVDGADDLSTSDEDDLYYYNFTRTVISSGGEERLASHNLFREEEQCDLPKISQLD
Sequence of Histone-lysine N-methyltransferase 2A (Homo sapiens) (Q03164 2719-3969 limits assumed): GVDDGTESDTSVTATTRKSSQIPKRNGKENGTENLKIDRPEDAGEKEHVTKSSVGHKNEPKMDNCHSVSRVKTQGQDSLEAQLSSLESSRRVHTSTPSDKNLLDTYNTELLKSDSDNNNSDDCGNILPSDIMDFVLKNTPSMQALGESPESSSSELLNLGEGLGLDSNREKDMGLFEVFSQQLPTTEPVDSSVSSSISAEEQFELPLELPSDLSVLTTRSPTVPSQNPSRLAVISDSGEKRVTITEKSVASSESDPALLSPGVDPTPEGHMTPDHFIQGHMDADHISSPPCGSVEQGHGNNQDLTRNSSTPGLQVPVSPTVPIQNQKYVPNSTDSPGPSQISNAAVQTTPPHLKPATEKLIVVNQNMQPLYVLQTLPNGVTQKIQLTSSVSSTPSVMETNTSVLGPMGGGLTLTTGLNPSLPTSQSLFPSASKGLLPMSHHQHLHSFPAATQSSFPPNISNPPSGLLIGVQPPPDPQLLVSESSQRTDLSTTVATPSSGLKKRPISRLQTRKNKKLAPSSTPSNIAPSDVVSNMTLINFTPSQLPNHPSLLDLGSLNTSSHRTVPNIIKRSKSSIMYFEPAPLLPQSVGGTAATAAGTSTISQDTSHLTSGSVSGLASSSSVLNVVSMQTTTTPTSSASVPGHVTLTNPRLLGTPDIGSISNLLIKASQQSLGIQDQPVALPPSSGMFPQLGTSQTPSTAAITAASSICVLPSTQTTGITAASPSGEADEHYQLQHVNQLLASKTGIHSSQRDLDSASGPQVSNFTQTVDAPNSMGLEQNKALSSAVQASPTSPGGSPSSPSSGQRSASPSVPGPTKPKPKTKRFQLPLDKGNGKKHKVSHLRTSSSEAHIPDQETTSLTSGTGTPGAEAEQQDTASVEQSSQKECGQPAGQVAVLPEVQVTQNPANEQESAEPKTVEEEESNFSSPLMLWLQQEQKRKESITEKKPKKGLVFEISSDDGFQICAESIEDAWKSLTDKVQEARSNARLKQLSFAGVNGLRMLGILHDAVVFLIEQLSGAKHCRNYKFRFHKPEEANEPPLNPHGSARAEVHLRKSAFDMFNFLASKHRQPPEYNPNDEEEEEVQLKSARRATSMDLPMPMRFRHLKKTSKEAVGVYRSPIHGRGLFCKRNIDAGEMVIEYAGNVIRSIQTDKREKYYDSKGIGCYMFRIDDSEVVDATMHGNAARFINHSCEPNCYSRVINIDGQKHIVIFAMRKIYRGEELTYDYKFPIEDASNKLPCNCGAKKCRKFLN

[8] = target: Fibroblast growth factor receptor 1 (Homo sapiens, UniProt P11362); test: Selectivity interaction (KinomeScan (DiscoverX)) EUB0000595a FGFR1; settings: at 10 µM
[9] = target: T2, Tyrosine-protein kinase ZAP-70 (Homo sapiens) (UniProt P43403); test: Selectivity interaction (ProQinase) EUB0000171b ZAP70
T2 sequence (whole entry): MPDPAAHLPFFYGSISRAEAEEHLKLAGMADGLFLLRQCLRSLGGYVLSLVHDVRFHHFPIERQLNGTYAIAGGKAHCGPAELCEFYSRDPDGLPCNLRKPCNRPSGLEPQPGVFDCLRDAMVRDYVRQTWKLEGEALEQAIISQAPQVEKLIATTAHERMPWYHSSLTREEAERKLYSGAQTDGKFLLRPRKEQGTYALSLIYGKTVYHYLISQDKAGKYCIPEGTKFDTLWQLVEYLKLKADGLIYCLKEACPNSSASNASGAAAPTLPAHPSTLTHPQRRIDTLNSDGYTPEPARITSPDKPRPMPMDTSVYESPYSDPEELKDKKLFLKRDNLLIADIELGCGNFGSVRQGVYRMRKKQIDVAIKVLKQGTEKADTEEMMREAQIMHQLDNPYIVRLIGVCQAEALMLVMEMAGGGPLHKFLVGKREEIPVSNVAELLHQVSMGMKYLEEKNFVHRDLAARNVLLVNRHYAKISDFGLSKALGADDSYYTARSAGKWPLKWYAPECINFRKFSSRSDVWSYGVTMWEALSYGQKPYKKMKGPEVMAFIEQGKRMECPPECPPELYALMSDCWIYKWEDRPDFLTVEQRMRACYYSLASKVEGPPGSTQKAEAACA

[10] = target: T3, Scaffold protein ILK (Homo sapiens) (UniProt Q13418); test: Selectivity interaction (ActivX KiNativ screen (ex vivo kinase selectivity in human PBMCs)) EUB0001619a ILK; type: cell-based; settings: PBMC, at 1 µM
T3 sequence (whole entry): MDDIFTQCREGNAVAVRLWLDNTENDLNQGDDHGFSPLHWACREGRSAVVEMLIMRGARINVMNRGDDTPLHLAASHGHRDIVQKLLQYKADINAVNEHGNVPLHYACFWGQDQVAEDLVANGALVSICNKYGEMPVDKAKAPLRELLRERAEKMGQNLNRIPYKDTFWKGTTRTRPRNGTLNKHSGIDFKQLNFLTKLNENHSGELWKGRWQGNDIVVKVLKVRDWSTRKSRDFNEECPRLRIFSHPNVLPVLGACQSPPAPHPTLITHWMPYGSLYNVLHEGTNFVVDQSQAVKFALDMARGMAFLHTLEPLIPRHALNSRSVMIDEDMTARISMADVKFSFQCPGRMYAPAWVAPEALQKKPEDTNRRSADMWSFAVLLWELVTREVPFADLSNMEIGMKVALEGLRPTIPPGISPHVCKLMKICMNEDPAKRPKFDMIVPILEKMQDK

[11] = target: Serine/threonine-protein kinase MRCK alpha (Homo sapiens) (UniProt Q5VT25); test: Selectivity interaction (KinomeScan (DiscoverX)) EUB0000618a CDC42BPA; settings: at 10 µM

Sequence of Cyclin-dependent kinase 16 (Homo sapiens) (Q00536 whole entry): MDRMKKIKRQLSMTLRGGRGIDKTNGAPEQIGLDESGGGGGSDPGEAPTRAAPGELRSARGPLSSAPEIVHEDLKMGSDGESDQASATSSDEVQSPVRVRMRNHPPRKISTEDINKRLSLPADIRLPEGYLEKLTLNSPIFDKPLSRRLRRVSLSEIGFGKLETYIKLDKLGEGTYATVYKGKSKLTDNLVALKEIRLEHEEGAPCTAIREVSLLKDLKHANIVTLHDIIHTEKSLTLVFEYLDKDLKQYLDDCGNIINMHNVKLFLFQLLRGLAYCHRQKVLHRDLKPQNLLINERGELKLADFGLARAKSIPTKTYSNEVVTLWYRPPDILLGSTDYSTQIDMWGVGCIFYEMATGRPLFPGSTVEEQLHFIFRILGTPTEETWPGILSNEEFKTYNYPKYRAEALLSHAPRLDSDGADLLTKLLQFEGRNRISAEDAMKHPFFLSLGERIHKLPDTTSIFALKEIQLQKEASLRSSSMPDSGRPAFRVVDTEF

SMILES: Cc1cc([C@@H](C)Nc2ccccc2C(=O)O)c2nc(N3CCOCC3)cc(=O)n2c1 [AZD-6482]
% of control [1]: 100%
% of control [2]: 100%

SMILES: CN(C)C/C=C/C(=O)Nc1ccc(C(=O)N2CCCC(Nc3ncc(Cl)c(-c4c[nH]c5ccccc45)n3)C2)cc1 (stereo not drawn)
% of control [3]: 81%

dTM [4]: -1.08 K
SMILES: Cc1cc(CN)cc(C)c1-c1ncn(C)c1-c1cncn1C

% of control [5]: 3.7%
% of inhibition [6]: -15.6%
SMILES: Cn1cc(-n2cnc3c(NCc4nc5cc(Cl)c(Cl)cc5[nH]4)nc(N4CCOCC4)nc32)cn1

% of activity ([7]; at 1 µM): 99.3%
% of activity ([7]; at 10 µM): 100%
SMILES: Cc1cc(C)cc([C@H]2c3cc(C)ccc3NC(=O)CN2C(=O)c2ccc(Br)s2)c1

SMILES: COCC(=O)NC/C=C/c1ccc2ncnc(Nc3ccc(Oc4ccc(C)nc4)c(C)c3)c2c1 [CP-724714]
% of control [8]: 100%

% of control ([9]; at 1 µM): 88%
% of control ([9]; at 5 µM): 93%
SMILES: C=CC(=O)Nc1cccc(C(=O)Nc2ccc(Nc3cc(-c4[nH]c(SC)nc4C)ccn3)cc2)c1

SMILES: N#Cc1cccc(-c2c[nH]c3ncnc(N4CCOCC4)c23)c1
% of inhibition [10]: -12%

SMILES: O[C@H]1CC[C@H](Nc2ncc3nc(Nc4c(F)cc(F)cc4F)n([C@H]4CCOC4)c3n2)CC1
% of control [11]: 100%
